Experimental data published in patent US6935334B2, “Enhancing therapeutic effectiveness of nitric oxide inhalation” (The General Hospital Corporation, priority 2000, dated 2005).

Legend:
[1] = system: isolated-perfused mouse lungs preconstricted with U46619; assay: Pulmonary vasodilator response to NO inhalation in isolated, perfused and ventilated mouse lungs preconstricted with U46619; format: in vivo; conditions: for impairment of responsiveness to NO inhalation: wild-type mice treated with endotoxin, scavengers of reactive oxygen and nitrogen species; for vasodilator response to NO inhalation, compared to that in control mice: endotoxin-challenged (LPS 50 mg/kg i.p.) wild-type mice treated with NAC 150 mg/kg i.p. immediately and 3.5 hours later, lungs isolated 16 hours after endotoxin
Procedure: Isolated, Perfused, and Ventilated Mouse Lung Model Mice were killed by intraperitoneal injection of pentobarbital sodium (200 mg/kg body weight) and placed in a 37° C. water-jacketed chamber (Isolated Perfused Lung Size 1 Type 839; Hugo-Sachs Elektronik, March-Hugstetten, Germany). The trachea was isolated and intubated, and the lungs were ventilated with 21% O2, 6% CO2 and 73% N2 using a volume-controlled ventilator (model 687; Harvard Apparatus, South Natick, Mass.) at a ventilatory rate of 85 breaths/min and 2 cm H2O end-expiratory pressure. The tidal volume was adjusted to provide a peak inspiratory pressure of 10 cm H2O throughout each study. The lungs were exposed via a midline sternotomy, and a ligataure was placaed around the aorticopulmonary outflow tract. After injection of 10 IU heparin into the right ventricle, the pulmonary artery was cannulated with a stainless steel cannula (1 mm ID) via the right ventricle. The pulmonary venous effluent was drained via a stainless steel cannula (1 mm ID) placed through the apex of the left ventricle across the mitral valve and into the left atrium. Left atrial pressure was maintained at 2 mmHg. Lungs were perfused at a constant flow (50 ml. kg body weight^−1. min^−1; Ismatec Reglo-Analogue roller pump; Laboratoriumstechnik GmbH, Wertheim-Mondfeld, Germany) with a non-recirculating system at 37° C. The perfusate used was Hanks' Balanced Salt Solution (GibcoBRL, Grand Island, N.Y.) containing 1.26 mM CaCl2, 5.33 mM KCl, 0.44 mM KH2PO4, 0.50 mM MgCl2, 0.41 mM MgSO4, 138.0 mM NaCl, 4.0 mM NaHCO3, 0.3 mM Na2HPO4, and 5.6 mM glucose. Bovine serum albumin, 5%, and dextran, 5% (both from Sigma Chemical Co., St. Louis, Mo.), were added to the perfusate to prevent pulmonary edema, in the isolated, perfused, and ventilated rat lung, essentially as described in Holzmann et al., 1996, Am. J. Physiol. 271:L981-L986. Indomethacin, […] (Sigma Chemical Co.), and 1 mM L-NAME (Sigma Chemical Co.) were added to the perfusate to inhibit endogenous prostaglandin and NO synthesis, respectively. Sodium bicarbonate was added to adjust the perfusate pH to 7.34-7.43.
Pulmonary artery pressure (PAP) and left atrial pressure were measured via saline-filled membrane pressure transducers (Argon, Athens, Tex.) connected to a side port of the inflow and outflow cannulae, respectively. Airway pressure (Paw) was measured using a differential pressure transducer (model MP-45-32-871; Validyne Engineering Corp., Northridge, Calif.) connected to the inspiratory limb just before the Y piece. Pressure transducers were connected to a biomedical amplifier (Hewlett Packard 7754B, Andover, Mass.), and data were recorded at 150 Hz on a personal computer using an analog-to-digital interface with a data acquisition system (DI-220; Dataq Instruments, Akron, Ohio). The system was calibrated before each experiment.
For NO inhalation, NO gas (800 or 80 ppm NO in nitrogen, Airco, Murray Hill, N.J.) was blended (Oxygen Blender; Bird Corporation, Palm Springs, Calif.) with oxygen, carbon dioxide, and nitrogen to achieve a final concentration of 21% O2, 6% CO2, and the desired NO concentration. NO and higher oxidative states of NO (NOx; CLD 700 AL; Eco Physics, Dürmten, Switzerland), oxygen (Hudson Ventronics Ddivision, Temecula, Calif.), and carbon dioxide (Datex CO2 monitor; Puritan-Bennett Corpration, Los Angeles, Calif.) concentrations were monitored continuously.
Pulmonary Vascular Response to NO inhalation after Lipopolysaccharide Challenge Wild-type mice and NOS2-deficient mice were injected intraperitoneally with 50 mg/kg body weight Escherichia coli 0111:B4 lipopolysaccharide (LPS; Difco Laboratories, Detroit, Mich.) dissolved in saline 16 h before isolated lung perfusion. This time point was chosen based on previous studies in rats (Holzmann et al., 1996, Am. J. Physiol. 271:L981-L986). Untreated wild-type and NOS2-deficient mice served as controls. […]

[2] = system: hypoxic pulmonary vasoconstriction (HPV) in mice; assay: Change in incremental left pulmonary vascular resistance (ΔiLPV) in response to LMBO, a measure of HPV (Example 2, FIG. 8); format: in vivo, mouse
Procedure: We performed experiments on the change in incremental left pulmonary vascular resistance, ΔiLPV, in response to LMBO—a measure of HPV. HPV was impaired in wild-type mice challenged with endotoxin (FIG. 8). HPV was preserved in endotoxin-challenged mice treated with N-acetylcysteine at 500 mg/kg, but not 150 mg/kg (intraperitoneal administration simultaneously with endotoxin).

[3] = system: hypoxic pulmonary vasoconstriction (HPV) in mice; assay: Percent increase in left pulmonary vascular resistance (LPVR) after LMBO, one-lung hypoxia model (Example 3, FIG. 13); format: in vivo, mouse; conditions: endotoxin-challenged wild-type mice
Procedure: Wild-type (SV129B6/F1) mice and 5LO-deficient mice were anesthetized and studied at thoracotomy. Left pulmonary artery flow (QLPA) and pulmonary (PPA) and systemic (PSA) artery pressures were measured continuously.
HPV was assessed as the percent increase in left pulmonary vascular resistance (the slope of the P/Q-relationship, LPVR) after left main bronchus occlusion (LMBO). LMBO increased LPVR by 99±13% in 5LO deficient mice, and by 100±11% in wild-type mice.

[4] = system: pulmonary vasculature of wild-type mice; assay: Pulmonary vasoconstrictor response to intravenous angiotensin II; format: in vivo, mouse; conditions: for PVR: 5.0 μg/kg per minute angiotensin II
Procedure: Group 6: pulmonary vascular response to increasing doses of intravenous angiotensin II. SV129/B6F1 wild-type mice treated with endotoxin (n=5) or with saline (n=3) were studied 22 hours after the challenge.
Infusion of angiotensin II. Increasing doses of angiotensin II (0.05, 0.5, and 5.0 ng/g bw per minute) dissolved in sterile normal saline were infused via the central venous catheter using an infusion pump (Pump 11; Harvard Apparatus Co., South Natick, Mass.). PLA, PPA, PSA, and QLTAF were continuously measured.

[Cl-].[Mn+3].[O-]c1ccccc1C=NCCN=Cc1ccccc1[O-] [EUK-8]
impairment of responsiveness to NO inhalation [1]: prevented impairment of responsiveness to NO inhalation
HPV (ΔiLPV in response to LMBO) ([2]; endotoxin-challenged mice treated with EUK-8): completely preserved

CN(C)C(=O)CCSC(SCCC(=O)O)c1cccc(/C=C/c2ccc3ccc(Cl)cc3n2)c1 (stereo not drawn) [MK571]
HPV (LMBO-induced increase in left PVR) [3]: preserved

CC(C)c1ccc2c(c1)c(SC(C)(C)C)c(CC(C)(C)C(=O)O)n2Cc1ccc(Cl)cc1 [MK886]
HPV (LMBO-induced increase in left PVR) [3]: preserved

CC(=O)N[C@@H](CS)C(=O)O [N-acetylcysteine]
vasodilator response to NO inhalation, compared to that in control mice ([1]; 0.4 ppm NO): 75±14%
vasodilator response to NO inhalation, compared to that in control mice ([1]; 4.0 ppm NO): 103±15%
vasodilator response to NO inhalation, compared to that in control mice ([1]; 40 ppm NO): 91±7%
responsiveness to NO inhalation after prolonged NO exposure ([1]; endotoxin-challenged, NAC-treated mice exposed to 20 ppm NO for 16 hours): preserved
lipopolysaccharide-induced attenuation of vasoreactivity to NO inhalation (FIG. 5) ([1]; two doses of 150 mg/kg i.p., simultaneously with lipopolysaccharide and 3.5 hours later): completely protected
impairment of responsiveness to NO inhalation [1]: prevented impairment of responsiveness to NO inhalation
HPV (ΔiLPV in response to LMBO) ([2]; endotoxin-challenged mice, 150 mg/kg intraperitoneally simultaneously with endotoxin): not
HPV (ΔiLPV in response to LMBO) ([2]; endotoxin-challenged mice, 500 mg/kg intraperitoneally simultaneously with endotoxin): preserved
HPV ([2]; endotoxin-challenged wild-type mice treated with N-acetylcysteine and exposed to 20 ppm NO for 22 hours): not impaired

CNC(=O)NC [dimethylurea]
impairment of responsiveness to NO inhalation [1]: prevented impairment of responsiveness to NO inhalation

angiotensin II: vasoconstrictor infused intravenously to test pulmonary vascular contractile function (DRVYIHPF; Angiotensin-2; UniProt P01019 25-32, looked up)
PVR ([4]; endotoxin-challenged wild-type mice, baseline 55±11): 174±40 mmHg·min·g·mL^−1
PVR ([4]; saline-treated wild-type mice without endotoxin, baseline 74±24): 184±25 mmHg·min·g·mL−1
PLA in response to angiotensin II infusion ([4]; saline-treated and endotoxin-treated wild-type mice (either group)): did not change

B1: catalase: scavenger of reactive oxygen and nitrogen species (anti-ROS agent) (protein, UniProt P04040 2-527, looked up)
Catalase: ADSRDPASDQMQHWKEQRAAQKADVLTTGAGNPVGDKLNVITVGPRGPLLVQDVVFTDEMAHFDRERIPERVVHAKGAGAFGYFEVTHDITKYSKAKVFEHIGKKTPIAVRFSTVAGESGSADTVRDPRGFAVKFYTEDGNWDLVGNNTPIFFIRDPILFPSFIHSQKRNPQTHLKDPDMVWDFWSLRPESLHQVSFLFSDRGIPDGHRHMNGYGSHTFKLVNANGEAVYCKFHYKTDQGIKNLSVEDAARLSQEDPDYGIRDLFNAIATGKYPSWTFYIQVMTFNQAETFPFNPFDLTKVWPHKDYPLIPVGKLVLNRNPVNYFAEVEQIAFDPSNMPPGIEASPDKMLQGRLFAYPDTHRHRLGPNYLHIPVNCPYRARVANYQRDGPMCMQDNQGGAPNYYPNSFGAPEQQPSALEHSIQYSGEVRRFNTANDDNVTQVRAFYVNVLNEEQRKRLCENIAGHLKDAQIFIQKKAVKNFTEVHPDYGSHIQALLDKYNAEKPKNAIHTFVQSGSHLAAREKANL
impairment of responsiveness to NO inhalation [1]: prevented impairment of responsiveness to NO inhalation
